Test results published in publication PMC6152416, “Pharmacological and Toxicological Screening of Novel Benzimidazole-Morpholine Derivatives as Dual-Acting Inhibitors” (Molecules : A Journal of Synthetic Chemistry and Natural …, 2017).
Like-named read-outs stand apart in the source and are kept apart here.

How the values were obtained:
Format in all cases: biochemical
COX-1 = biological target: T1, COX-1 (Ovis aries, UniProt P05979); test: Fluorimetric COX-1 inhibition screening kit (BioVision)
T1 construct: purchased BioVision (Milpitas, CA, USA) K548-100
T1 sequence (P05979 25-600): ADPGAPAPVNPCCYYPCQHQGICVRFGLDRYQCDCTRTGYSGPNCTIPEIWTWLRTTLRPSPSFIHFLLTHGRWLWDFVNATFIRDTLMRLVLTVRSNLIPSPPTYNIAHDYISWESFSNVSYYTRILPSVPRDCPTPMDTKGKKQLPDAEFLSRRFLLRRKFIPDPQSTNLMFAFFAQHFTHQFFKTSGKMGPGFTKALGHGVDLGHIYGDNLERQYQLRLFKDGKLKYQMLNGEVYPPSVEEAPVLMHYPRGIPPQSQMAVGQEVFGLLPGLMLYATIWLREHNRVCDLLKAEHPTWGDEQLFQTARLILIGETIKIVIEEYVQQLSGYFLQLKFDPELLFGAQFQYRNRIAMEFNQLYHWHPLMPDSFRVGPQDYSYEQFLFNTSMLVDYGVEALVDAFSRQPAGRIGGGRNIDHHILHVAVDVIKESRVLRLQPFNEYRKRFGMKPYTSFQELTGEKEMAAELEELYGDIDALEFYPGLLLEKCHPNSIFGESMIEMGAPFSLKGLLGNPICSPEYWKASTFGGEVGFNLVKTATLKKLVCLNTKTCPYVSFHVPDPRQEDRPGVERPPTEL
Experimental: (§1) Inhibitory potency of the compounds on COX-1 and COX-2 enzymes was determined by using fluorimetric COX-1 and COX-2 inhibition screening kits from BioVision (Milpitas, CA, USA). The experimental protocol as described in the guides provided by the supplier was followed. All of the pipetting were performed using a robotized system to increase speed, accuracy and precision. Fluorescence intensities of the samples were kinetically measured at 25 °C for 5–10 min by monitoring emissions at 587 nm after excitation at 535 nm. Two appropriate points (T1 and T2) in the linear range of the plot were chosen and the corresponding fluorescence values (RFU1 and RFU2) were obtained. The slope for all samples including Enzyme Control (EC) was calculated by dividing the net ΔRFU (RFU2 − RFU1) values by the time ΔT (T2 − T1). Percentage of relative inhibition was calculated by using the following equation:% Relative inhibition = (Slope of EC − Slope of S/Slope of EC) × 100 where S is the term representing the tested compound [51, 52]. […] The IC50 values were calculated using the plots of the enzyme activity against concentrations by applying regression analyses.

AChE = AChE (Homo sapiens, UniProt P22303)
AChE, sequence (P22303 32-614): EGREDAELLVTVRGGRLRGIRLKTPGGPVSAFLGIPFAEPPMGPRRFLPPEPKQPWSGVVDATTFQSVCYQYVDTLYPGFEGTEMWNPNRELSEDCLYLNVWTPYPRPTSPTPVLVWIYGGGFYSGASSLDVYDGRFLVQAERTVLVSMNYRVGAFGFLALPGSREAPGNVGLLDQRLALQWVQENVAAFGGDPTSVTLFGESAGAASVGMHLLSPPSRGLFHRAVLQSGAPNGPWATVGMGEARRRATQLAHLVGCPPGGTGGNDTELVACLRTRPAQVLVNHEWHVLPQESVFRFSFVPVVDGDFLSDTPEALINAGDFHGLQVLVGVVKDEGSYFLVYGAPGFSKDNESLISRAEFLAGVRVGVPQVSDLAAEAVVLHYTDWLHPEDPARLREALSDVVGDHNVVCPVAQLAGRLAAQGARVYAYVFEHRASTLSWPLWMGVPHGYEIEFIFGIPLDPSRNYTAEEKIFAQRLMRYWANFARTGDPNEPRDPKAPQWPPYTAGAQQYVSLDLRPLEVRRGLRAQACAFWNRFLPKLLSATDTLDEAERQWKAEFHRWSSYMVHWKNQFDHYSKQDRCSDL
Experimental: Inhibition potency of the test compounds against AChE was determined using Ellman’s method. Enzyme solutions were prepared in gelatin solution (1%, w/v), at the concentration of 2.5 units/mL. […] AChE solution (20 µL/well) and test solution (20 µL/well) were added to phosphate buffer solution (140 µL/well, pH 8.0 ± 0.1), and incubated at 25 °C for 5 min. […] The production of the yellow anion was recorded by multimode microplate reader for 10 min at 412 nm. As a control, an identical solution of the enzyme without the inhibitor was processed. The control and the inhibitor readings were corrected with blank-readings. All processes were assayed in four independent determinations.

COX-2 = biological target: T2, COX-2 (Homo sapiens, UniProt P35354); test: Fluorimetric COX-2 inhibition screening kit (BioVision)
T2 construct: purchased BioVision (Milpitas, CA, USA) K547-100
T2 sequence (P35354 18-604): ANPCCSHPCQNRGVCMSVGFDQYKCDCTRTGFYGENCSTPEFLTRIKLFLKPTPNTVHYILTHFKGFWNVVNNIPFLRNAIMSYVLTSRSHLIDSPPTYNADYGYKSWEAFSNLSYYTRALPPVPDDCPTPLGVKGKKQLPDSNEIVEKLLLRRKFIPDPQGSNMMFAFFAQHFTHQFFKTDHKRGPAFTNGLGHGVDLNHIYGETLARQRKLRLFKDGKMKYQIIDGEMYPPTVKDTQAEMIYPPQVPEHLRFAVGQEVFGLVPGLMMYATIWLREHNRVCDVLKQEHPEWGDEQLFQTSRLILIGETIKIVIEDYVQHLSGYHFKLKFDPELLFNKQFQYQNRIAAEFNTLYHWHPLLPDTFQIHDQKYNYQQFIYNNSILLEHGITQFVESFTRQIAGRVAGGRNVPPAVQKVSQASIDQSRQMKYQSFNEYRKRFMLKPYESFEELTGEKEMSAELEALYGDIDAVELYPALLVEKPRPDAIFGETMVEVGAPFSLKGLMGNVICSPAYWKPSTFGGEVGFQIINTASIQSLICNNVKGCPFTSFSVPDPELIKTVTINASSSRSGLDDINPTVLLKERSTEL
Experimental: as §1

human recombinant MAO-B = biological target: T3, human recombinant MAO-B (Homo sapiens, UniProt P27338); test: MAO inhibition assay (kynuramine, fluorimetric)
T3 sequence (P27338 1-520): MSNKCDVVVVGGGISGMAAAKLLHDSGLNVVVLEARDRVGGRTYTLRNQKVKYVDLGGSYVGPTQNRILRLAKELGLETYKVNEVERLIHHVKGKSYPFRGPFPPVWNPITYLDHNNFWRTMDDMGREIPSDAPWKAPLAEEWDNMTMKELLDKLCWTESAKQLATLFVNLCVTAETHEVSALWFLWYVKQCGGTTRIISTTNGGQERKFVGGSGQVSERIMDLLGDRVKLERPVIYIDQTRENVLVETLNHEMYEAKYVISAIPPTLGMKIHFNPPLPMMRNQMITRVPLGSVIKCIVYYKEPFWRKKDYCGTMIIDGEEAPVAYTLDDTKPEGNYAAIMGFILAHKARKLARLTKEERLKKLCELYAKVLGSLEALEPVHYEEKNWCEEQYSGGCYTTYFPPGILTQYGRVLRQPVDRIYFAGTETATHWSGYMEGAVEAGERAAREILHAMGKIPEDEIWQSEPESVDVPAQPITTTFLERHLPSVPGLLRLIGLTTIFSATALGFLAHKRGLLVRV
Experimental: (§2) Enzyme activity assays were performed according to the procedure reported by Matsumoto et al. with slight modifications. In order to prevent the destructive effect of light on MAO enzymes, the assays were performed in 96-well black plates. Phosphate buffer solution (0.1 M, pH = 7.4) was used for preparation of stock solutions (5 mg/mL) of both human recombinant MAO-A and MAO-B enzymes. […] The addition of the test compound solution was followed by addition of either MAO-A or MAO-B enzyme (50 μL/well) solutions. After 10 min of incubation at 37 °C, kynuramine (50 μL/well) was added and enzyme-substrate reaction was initiated. The plate was incubated for 20 min at 37 °C and then reaction was terminated by addition of 2 N NaOH (75 μL/well). The fluorimetric reads from the top was performed at 310 nm excitation and 380 nm emission wavelengths.

human recombinant MAO-A = biological target: T4, human recombinant MAO-A (Homo sapiens, UniProt P21397); test: MAO inhibition assay (kynuramine, fluorimetric)
T4 sequence (P21397 1-527): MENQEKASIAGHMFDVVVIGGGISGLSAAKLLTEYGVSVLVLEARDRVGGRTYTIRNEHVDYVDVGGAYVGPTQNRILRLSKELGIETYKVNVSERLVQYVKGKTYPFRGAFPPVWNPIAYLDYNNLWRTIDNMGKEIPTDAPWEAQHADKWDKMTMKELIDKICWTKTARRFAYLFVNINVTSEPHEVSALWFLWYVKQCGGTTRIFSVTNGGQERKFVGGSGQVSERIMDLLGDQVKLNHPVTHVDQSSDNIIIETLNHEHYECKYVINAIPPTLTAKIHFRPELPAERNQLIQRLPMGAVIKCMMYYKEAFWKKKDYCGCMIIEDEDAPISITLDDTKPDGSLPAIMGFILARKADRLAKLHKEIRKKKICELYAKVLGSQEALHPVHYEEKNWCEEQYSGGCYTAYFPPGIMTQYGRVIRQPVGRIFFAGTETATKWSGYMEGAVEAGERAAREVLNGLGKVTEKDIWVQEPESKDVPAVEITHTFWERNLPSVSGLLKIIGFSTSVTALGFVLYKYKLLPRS
Experimental: as §2

Structure (SMILES) | COX-1 Inhibition (%) (COX-1; 10^-3 M) | COX-1 Inhibition (%) (COX-1; 10^-4 M) | AChE Inhibition (%) (AChE; 10^-3 M) | AChE Inhibition (%) (AChE; 10^-4 M) | COX-2 Inhibition (%) (COX-2; 10^-3 M) | COX-2 Inhibition (%) (COX-2; 10^-4 M) | MAO-B Inhibition (%) (human recombinant MAO-B; 10^-3 M) | MAO-B Inhibition (%) (human recombinant MAO-B; 10^-4 M) | MAO-A Inhibition (%) (human recombinant MAO-A; 10^-3 M) | MAO-A Inhibition (%) (human recombinant MAO-A; 10^-4 M) | also measured
FC(F)(F)c1ccc(-c2nc3ccccc3n2CCN2CCOCC2)cc1 [Compound 2l, 2-(4-Trifluoromethylphenyl)-1-[2-(morpholin-4-yl)ethyl]-1H-benzimidazole] | 36.87 | 33.46 | 33.88 | 33.88 | 21.00 | 34.62 | 47.66 | 38.09 | 38.51 | 30.16 | 
Cc1ccc(-c2nc3ccccc3n2CCN2CCOCC2)cc1 [Compound 2a, 2-(4-Methylphenyl)-1-[2-(morpholin-4-yl)ethyl]-1H-benzimidazole] | 75.08 | 71.23 | 21.80 | 21.80 | 58.28 | 56.23 | 25.27 | 16.63 | 24.29 | 19.15 | IC50 (COX-1): 56.1 µM; COX-1 inhibition at the initial concentrations (COX-1; 10^−3 M and 10^−4 M): more than 50%; inhibition at 10 µM (COX-1; 10^−5 M): 47.4 ± 1.08%; inhibition at 1 µM (COX-1; 10^−6 M): 40.1 ± 0.92%; inhibition at 0.1 µM (COX-1; 10^−7 M): 35.7 ± 0.97%; inhibition at 0.01 µM (COX-1; 10^−8 M): 30.5 ± 0.83%; inhibition at 0.001 µM (COX-1; 10^−9 M): 28.8 ± 0.79%; IC50 (COX-2): 58.7 µM; COX-2 inhibition at the initial concentrations (COX-2; 10^−3 M and 10^−4 M): more than 50%; inhibition at 10 µM (COX-2; 10^−5 M): 43.7 ± 1.07%; inhibition at 1 µM (COX-2; 10^−6 M, read-out: COX 2 Inhibition %): 40.3 ± 1.1%; inhibition at 0.1 µM (COX-2; 10^−7 M): 38.3 ± 0.92%; inhibition at 0.01 µM (COX-2; 10^−8 M): 36.2 ± 0.87%; inhibition at 0.001 µM (COX-2; 10^−9 M): 32.4 ± 0.91%
CN(C)c1ccc(-c2nc3ccccc3n2CCN2CCOCC2)cc1 [Compound 2i, 2-(4-Dimethylaminophenyl)-1-[2-(morpholin-4-yl)ethyl]-1H-benzimidazole] | 30.08 | 22.62 | 7.54 | 7.54 | 18.47 | 25.76 | 22.17 | 14.43 | 26.91 | 19.20 | 
Fc1ccc(-c2nc3ccccc3n2CCN2CCOCC2)cc1 [Compound 2d, 2-(4-Fluorophenyl)-1-[2-(morpholin-4-yl)ethyl]-1H-benzimidazole] | 31.87 | 29.36 | 16.20 | 16.20 | 21.08 | 28.46 | 45.29 | 38.96 | 39.79 | 33.11 | 
c1ccc(-c2ccc(-c3nc4ccccc4n3CCN3CCOCC3)cc2)cc1 [Compound 2o, 2-(1,1’-Biphenyl)-1-[2-(morpholin-4-yl)ethyl]-1H-benzimidazole] | 27.63 | 34.00 | 6.33 | 6.33 | 30.76 | 21.48 | 31.12 | 23.54 | 31.85 | 26.19 | 
Brc1ccc(-c2nc3ccccc3n2CCN2CCOCC2)cc1 [Compound 2g, 2-(4-Bromophenyl)-1-[2-(morpholin-4-yl)ethyl]-1H-benzimidazole] | 29.47 | 21.74 | 13.04 | 13.04 | 16.30 | 19.03 | 38.63 | 30.87 | 30.85 | 22.29 | 
